Like-named read-outs stand apart in the source and are kept apart here.
Key:
[1] = test system: AHH activity of AHH-1 cells; assay type: cell-based, human
Procedure: The quantity of 3-hydroxy BaP was measured by fluorescent intensity activated by a light wavelength of 396 nm and measured at 522 nm using a spectrofluorimeter (Farrand Model Mk-1, Valhalla, N.Y.).
After growth of the cells in culture medium with gentamycin and kanamycin, the cells were plated in microtiter plates at a density of about 0.2 cells per well. Colonies were isolated and characterized for BaP-induced growth inhibition. A total of 47 colonies were isolated and contacted with 40 uM BaP. In its normal state, BaP is not highly cytotoxic or mutagenic; however, if metabolized by oxidative activity into one or more epoxides or phenols, the metabolites tend to be toxic and mutagenic.
6-TG resistant clones were characterized for AHH activity by measuring the rate of production of 3-OH benzopyrene, a fluorescent metabolite of BaP which is created by AHH activity.

AHH-1 cells [2] = test system: AHH-1 cells
in vitro = conditions: human, ahh-1 cells, RELATIVE SURVIVAL; for viability at 48 h, 25 µM: 25 μM × 48 hours; for viability at 48 h, 5000 µM: 5 mM × 48 hours; for viability at 48 h, 14000 µM: 14 mM × 48 hours; for viability at 48 h, 28000 µM: 28 mM × 48 hours; for viability at 48 h, 300 µM: 300 μM × 48 hours
[3] = test system: 6-TG resistant AHH-1 clones; test: Plating efficiency of clones resistant to 6-TG; assay type: cell-based, human; conditions: for Plating Efficiency with 6-TG & 2000 c/w: with 2000 wild type cells per well
wild type AHH-1 cells = test: Plating efficiency of wild type cells with 6-TG; assay type: cell-based, human
AHH-1 cells [4] = test: Cell clumping at concentrations of 6-TG in microtiter wells; assay type: cell-based, human
Procedure: When applied at relatively high concentrations to a colony of cells, 6-thioguanine (6-TG) causes the cells to clump together, rendering it difficult or impossible for live mutant cells to survive and create colonies. […] […]. Subsequent routine work was done using 0.5 μg/ml of 6-TG.

[5] = test system: 6-TG resistant AHH-1 cells
[6] = 1 μM × 48 hours, induction CEPE
[7] = 3 μM × 48 hours, induction CEPE
[8] = 10 μM × 48 hours, induction CEPE
[9] = 25 μM × 4.8 hours, induction CEPE
[10] = 50 μM × 48 hours, induction CEPE & BNF
[11] = 25 μM × 48 hours, induction none
[12] = 50 μM × 48 hours, induction none
[13] = 75 μM × 48 hours, induction none
[14] = 100 μM × 48 hours, induction none
[15] = 10 μM × 48 hours, induction BNF
[16] = 100 μM × 48 hours, induction BNF
[17] = 600 μM × 48 hours, induction none
[18] = 50 μM × 48 hours, induction BNF

## C1=Cc2cc3cccc4ccc5ccc1c2c5c43 [CEPE, cyclopenteno(c,d)pyrene]
[1]
  induction of AHH activity: inducers
AHH-1 cells [2]; [6]
  MUTANT FRACTION × 10^6, MEAN ± STD.DEV.: 71 ± 6 × 10^6
AHH-1 cells [2]; [7]
  MUTANT FRACTION × 10^6, MEAN ± STD.DEV.: 78 ± 9 × 10^6
AHH-1 cells [2]; [8]
  MUTANT FRACTION × 10^6, MEAN ± STD.DEV.: 22 ± 2 × 10^6
AHH-1 cells [2]; [9]
  MUTANT FRACTION × 10^6, MEAN ± STD.DEV.: 34 ± 4 × 10^6
AHH-1 cells [2]; 25 μM × 48 hours, induction CEPE & BNF
  MUTANT FRACTION × 10^6, MEAN ± STD.DEV.: 74 ± 7 × 10^6
AHH-1 cells [2]; [10]
  MUTANT FRACTION × 10^6, MEAN ± STD.DEV.: 64 ± 7 × 10^6
In vitro; [6]
  viability at 48 h, 1 µM: 61%
In vitro; [7]
  viability at 48 h, 3 µM: 63%
In vitro; [8]
  viability at 48 h, 10 µM: 59%
In vitro; [9]
  viability at 4.8 h, 25 µM: 54%
In vitro; induction CEPE & BNF
  viability at 48 h, 25 µM: 34%
In vitro; [10]
  viability at 48 h, 50 µM: 27%

## CCOS(C)(=O)=O [EMS, ethyl methanesulfonate]
AHH-1 cells [2]; 59 μM × 24 hours
  MUTANT FRACTION × 10^6, MEAN ± STD.DEV.: 6.3 ± 1.3 × 10^6
AHH-1 cells [2]; 100 μM × 24 hours
  MUTANT FRACTION × 10^6, MEAN ± STD.DEV.: 20 ± 5 × 10^6
In vitro; 59 μM × 24 hours
  viability at 24 h, 59 µM: 48%
In vitro; 100 μM × 24 hours
  viability at 24 h, 100 µM: 36%

## CN(C)N=O [DMN, dimethylnitrosamine]
AHH-1 cells [2]; 5 mM × 48 hours, induction BNF
  MUTANT FRACTION × 10^6, MEAN ± STD.DEV.: 4.0 ± 0.7 × 10^6
AHH-1 cells [2]; 5 mM × 48 hours, induction none
  MUTANT FRACTION × 10^6, MEAN ± STD.DEV.: 3.5 ± 0.7 × 10^6
AHH-1 cells [2]; 14 mM × 48 hours, induction BNF
  MUTANT FRACTION × 10^6, MEAN ± STD.DEV.: 8.0 ± 2.0 × 10^6
AHH-1 cells [2]; 14 mM × 48 hours, induction none
  MUTANT FRACTION × 10^6, MEAN ± STD.DEV.: 3.5 ± 0.7 × 10^6
AHH-1 cells [2]; 28 mM × 48 hours, induction BNF
  MUTANT FRACTION × 10^6, MEAN ± STD.DEV.: 8.6 ± 2.1 × 10^6
AHH-1 cells [2]; 28 mM × 48 hours, induction none
  MUTANT FRACTION × 10^6, MEAN ± STD.DEV.: 4.1 ± 1.3 × 10^6
In vitro; induction BNF
  viability at 48 h, 5000 µM: 112%
  viability at 48 h, 14000 µM: 100%
  viability at 48 h, 28000 µM: 87%
In vitro; induction none
  viability at 48 h, 5000 µM: 98%
  viability at 48 h, 14000 µM: 92%
  viability at 48 h, 28000 µM: 81%

## CC(=O)Nc1ccc2c(c1)Cc1ccccc1-2 [2AAF, 2-acetoaminofluorene]
AHH-1 cells [2]; [11]
  MUTANT FRACTION × 10^6, MEAN ± STD.DEV.: 4.8 ± 1.2 × 10^6
AHH-1 cells [2]; [12]
  MUTANT FRACTION × 10^6, MEAN ± STD.DEV.: 3.8 ± 1.1 × 10^6
AHH-1 cells [2]; [13]
  MUTANT FRACTION × 10^6, MEAN ± STD.DEV.: 6.9 ± 1.7 × 10^6
AHH-1 cells [2]; [14]
  MUTANT FRACTION × 10^6, MEAN ± STD.DEV.: 7.7 ± 0.7 × 10^6
In vitro; induction none
  viability at 48 h, 25 µM: 73%
In vitro; [12]
  viability at 48 h, 50 µM: 50%
In vitro; [13]
  viability at 48 h, 75 µM: 37%
In vitro; [14]
  viability at 48 h, 100 µM: 33%

## c1ccc2c(c1)-c1cccc3cccc-2c13 [Fla, fluoranthene]
AHH-1 cells [2]; human, ahh-1 cells, 48 h, 40 µM
  RELATIVE SURVIVAL: 0.70
In vitro
  viability at 48 h, 10 µM: 105%
  viability at 48 h, 20 µM: 93%
  viability at 48 h, 40 µM: 75%
  viability at 48 h, 50 µM: 67%
  viability at 48 h, 100 µM: 45%

## Nc1nc2nc[nH]c2c(=S)[nH]1 [6-TG, 6-thioguanine]
[3]; clone BP-3
  Plating Efficiency in 5 μg/ml 6-TG at 2 cells/well: 0.24
  Plating Efficiency with 6-TG & 2000 c/w: 0.23
[3]; clone BP-4
  Plating Efficiency in 5 μg/ml 6-TG at 2 cells/well: 0.34
  Plating Efficiency with 6-TG & 2000 c/w: 0.34
[3]; clone BP-5
  Plating Efficiency in 5 μg/ml 6-TG at 2 cells/well: 0.21
  Plating Efficiency with 6-TG & 2000 c/w: 0.20
[3]; clone BP-6
  Plating Efficiency in 5 μg/ml 6-TG at 2 cells/well: 0.26
  Plating Efficiency with 6-TG & 2000 c/w: 0.34
[3]; clone BP-7
  Plating Efficiency in 5 μg/ml 6-TG at 2 cells/well: 0.06
  Plating Efficiency with 6-TG & 2000 c/w: 0.07
Wild type AHH-1 cells
  Plating Efficiency in 5 μg/ml 6-TG at 2 cells/well: < 10^-3
Wild type AHH-1 cells; 2000 c/w
  Plating Efficiency with 6-TG & 2000 c/w: 10^-5
AHH-1 cells [4]; 0.5 μg/ml 6-TG
  cells per microtiter well that could be assayed: ≥ 20,000 cells per microtiter well
AHH-1 cells [4]; 5 μg/ml 6-TG
  cells per microtiter well that could be assayed without clumping: about 2,000 cells per microtiter well
[5]; 6-TG resistant mutant AHH-1 population, up to 5 μg/ml, about two cells per well
  sensitivity to toxic effects of 6-TG: not sensitive
[5]; seven 6-TG resistant clones
  growth rates with and without 6-TG: comparable growth rates

## C/C=C(/C)C(=O)O[C@H]1CCN2CC=C(COC(=O)[C@@](O)([C@H](C)OC)C(C)(C)O)[C@H]12 [LSCP, lasiocarpine]
AHH-1 cells [2]; [15]
  MUTANT FRACTION × 10^6, MEAN ± STD.DEV.: 3.9 ± 1 × 10^6
AHH-1 cells [2]; [16]
  MUTANT FRACTION × 10^6, MEAN ± STD.DEV.: 4.3 ± 1 × 10^6
AHH-1 cells [2]; [14]
  MUTANT FRACTION × 10^6, MEAN ± STD.DEV.: 5.4 ± 0.6 × 10^6
AHH-1 cells [2]; 300 μM × 48 hours, induction BNF
  MUTANT FRACTION × 10^6, MEAN ± STD.DEV.: 12.7 ± 2.1 × 10^6
AHH-1 cells [2]; 300 μM × 48 hours, induction none
  MUTANT FRACTION × 10^6, MEAN ± STD.DEV.: 6.2 ± 1.3 × 10^6
AHH-1 cells [2]; [17]
  MUTANT FRACTION × 10^6, MEAN ± STD.DEV.: 6.0 ± 1.4 × 10^6
In vitro; [15]
  viability at 48 h, 10 µM: 103%
In vitro; [16]
  viability at 48 h, 100 µM: 91%
In vitro; [14]
  viability at 48 h, 100 µM: 130%
In vitro; induction BNF
  viability at 48 h, 300 µM: 81%
In vitro; induction none
  viability at 48 h, 300 µM: 89%
In vitro; [17]
  viability at 48 h, 600 µM: 82%

## Cc1cccc2c1ccc1ccccc12 [1MP, 1-methylphenanthrene]
AHH-1 cells [2]; 25 μM × 48 hours, induction BNF
  MUTANT FRACTION × 10^6, MEAN ± STD.DEV.: 3.6 ± 1.2 × 10^6
AHH-1 cells [2]; [11]
  MUTANT FRACTION × 10^6, MEAN ± STD.DEV.: 4.4 ± 1.2 × 10^6
AHH-1 cells [2]; [18]
  MUTANT FRACTION × 10^6, MEAN ± STD.DEV.: 8.9 ± 1.5 × 10^6
AHH-1 cells [2]; [12]
  MUTANT FRACTION × 10^6, MEAN ± STD.DEV.: 4.1 ± 1.2 × 10^6
AHH-1 cells [2]; [16]
  MUTANT FRACTION × 10^6, MEAN ± STD.DEV.: 7.8 ± 1.4 × 10^6
AHH-1 cells [2]; [14]
  MUTANT FRACTION × 10^6, MEAN ± STD.DEV.: 7.8 ± 1.1 × 10^6
In vitro; induction BNF
  viability at 48 h, 25 µM: 47%
In vitro; induction none
  viability at 48 h, 25 µM: 54%
In vitro; [18]
  viability at 48 h, 50 µM: 35%
In vitro; [12]
  viability at 48 h, 50 µM: 38%
In vitro; [16]
  viability at 48 h, 100 µM: 29%
In vitro; [14]
  viability at 48 h, 100 µM: 31%

Source: US5935829A, “Mutation assays involving blood cells that metabolize toxic substances” (priority 1992, dated 1999)
